Values of other authors as cited in patent publication US20060034872A1, “Compositions and methods for preventing abuse of orally administered medications” (priority 2002, published 2006).

Columns and labels:
[1] = biological target: T1, VR1 receptors (Homo sapiens, UniProt Q8NER1)
T1 construct: selective stimulation of the VR1 receptors of nociceptive afferent neurons; from tissue; host or cells: nociceptive afferent neurons in vivo (skin, oral/nasal mucosa, airways, paravenous tissue)

[2] = biological target: T2, VR1 receptors of nociceptive afferent neurons (Homo sapiens, UniProt Q8NER1); settings: for sensation elicited by application: applied to skin, oral or nasal mucosa, or subdermal tissue
T2 construct: selective stimulation of the VR1 receptors of nociceptive afferent neurons; from tissue; host or cells: nociceptive afferent neurons in vivo (skin, oral/nasal mucosa, airways, paravenous tissue)
T2 sequence (Q8NER1 whole entry): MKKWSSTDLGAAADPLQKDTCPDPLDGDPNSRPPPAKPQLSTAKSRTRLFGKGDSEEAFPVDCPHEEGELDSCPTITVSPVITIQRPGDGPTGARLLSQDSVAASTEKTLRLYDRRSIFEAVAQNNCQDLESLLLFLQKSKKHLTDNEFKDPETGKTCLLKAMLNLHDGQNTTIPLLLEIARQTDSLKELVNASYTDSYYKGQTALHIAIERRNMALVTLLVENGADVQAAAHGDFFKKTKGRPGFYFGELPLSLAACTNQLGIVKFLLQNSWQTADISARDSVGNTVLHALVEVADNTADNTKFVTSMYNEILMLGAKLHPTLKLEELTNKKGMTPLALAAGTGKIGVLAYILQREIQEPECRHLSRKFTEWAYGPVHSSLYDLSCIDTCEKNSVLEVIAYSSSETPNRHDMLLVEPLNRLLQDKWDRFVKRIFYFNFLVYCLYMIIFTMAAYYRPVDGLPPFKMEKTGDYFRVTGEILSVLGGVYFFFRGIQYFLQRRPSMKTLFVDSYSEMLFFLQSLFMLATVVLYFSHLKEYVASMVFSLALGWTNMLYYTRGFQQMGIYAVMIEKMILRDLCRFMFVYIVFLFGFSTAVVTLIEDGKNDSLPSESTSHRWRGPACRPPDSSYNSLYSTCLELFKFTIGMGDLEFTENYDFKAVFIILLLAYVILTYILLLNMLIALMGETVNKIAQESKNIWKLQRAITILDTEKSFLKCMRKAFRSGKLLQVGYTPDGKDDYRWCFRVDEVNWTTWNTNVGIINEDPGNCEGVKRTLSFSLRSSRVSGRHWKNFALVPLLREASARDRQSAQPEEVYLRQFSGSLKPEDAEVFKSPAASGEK

[3] = repeated intravesical instillation, 1-2 mM, over five years
[4] = biological target: T3, peripheral VR1 receptors (Homo sapiens, UniProt Q8NER1)
T3 construct: from tissue
T3 sequence (Q8NER1 whole entry): as above

[5] = biological target: T2, VR1 receptors of nociceptive afferent neurons; settings: nasal instillation
[6] = long term intranasal, 0.15 mg per nostril every 2-3 days, total dose 1.05 mg
[7] = biological target: T2, VR1 receptors of nociceptive afferent neurons; settings: ingestion; as little as
[8] = biological target: T4, bronchial VR1 (Homo sapiens, UniProt Q8NER1); settings: inhaled, 10^−3-10^−8M solutions
T4 construct: selective stimulation of the VR1 receptors of nociceptive afferent neurons; from tissue; host or cells: nociceptive afferent neurons in vivo (skin, oral/nasal mucosa, airways, paravenous tissue)
T4 sequence (Q8NER1 whole entry): as above

[9] = not given; remark: listed apart in the source

T1 sequence (Q8NER1 whole entry): as above

Compound: COc1cc(CNC(=O)CCCC/C=C/C(C)C)ccc1O [capsaicin]
- absorption from the gastrointestinal tract (oral administration): readily absorbed
- metabolism in the liver (oral administration): almost completely metabolized
- pain when injected directly into a vein ([1]; injected directly into a vein, up to 650 μM): does not cause pain
- pain when injected intradermally ([1]; intradermal injection): very severe pain
- low capsaicin doses to which paravenous tissue is highly sensitive ([1]; paravenous tissue): 0.3 to 6.5 µM
- sensation elicited by application [2]: burning pain
- sensation following application of dermal cream ([2]; dermal cream containing 0.075% capsaicin): burning pain sensation
- pathological tissue changes [3]: did not result in pathological tissue changes
- maximum tolerated dose (MTD) ([4]; humans): approximately 4 μg/kg
- dose producing raw, burning sensation in chest, face, rectum and extremities ([4]; injection directly into the superior vena cava): > 0.5 µg/kg
- amount instilled giving nasal irritation and rhinorrhea [5]: 75 to 150 µg
- histological abnormalities [6]: no histological abnormalities
- amount ingested after which tongue and throat irritation occurs [7]: 3 ppm
- immediate effect of inhalation [8]: sneezing, coughing, and airway constriction

Compound: CCCCCCCC/C=C\CCCCCCCC(=O)NCc1ccc(O)c(OC)c1 [olvanil]
- first pass metabolism (in vivo): subject to first pass metabolism

Compound: COc1ccc2c3c1O[C@H]1C(=O)CC[C@@]4(O)[C@@H](C2)N(C)CC[C@]314 [oxycodone]
- biological and therapeutic half-lives ([9]; in vivo): very short
- bioavailability ([9]; oral and intranasal administration): high

Compound: C=C(C)[C@]12C[C@@H](C)[C@@]34O[C@](Cc5ccccc5)(O[C@@H]1[C@@H]3C=C(COC(=O)Cc1ccc(O)c(OC)c1)C[C@]1(O)C(=O)C(C)=C[C@@H]41)O2 [resiniferatoxin]
- sensation elicited by application [2]: burning pain
